We go through 19 compounds from patent US8962651B2, “Compounds for the treatment of hepatitis C” (Bristol-Myers Squibb Company, priority 2013, dated 2015).

The first assay concerns genotype 1b (Con-1) HCV replicon. The assay is described as follows: HCV replicon luciferase assay. The class given is cell-based. The note with it: 1b replicon, Huh-7 cells, Renilla luciferase, 3 days incubation. The procedure: The cell lines used to evaluate compounds consist of a human hepatocyte derived cell line (Huh-7) that constitutively expresses a genotype 1b (Con-1) HCV replicon or a genotype 1b (Con-1) HCV replicon with an asparagine replacing the cysteine at amino acid 316, or a genotype 2a (JFH-1) replicon, containing a Renilla luciferase reporter gene. These cells were maintained in Dulbecco's modified Eagle medium (DMEM) containing 10% FBS, 100 U/mL penicillin/streptomycin and 1.0 mg/mL G418.
After 3 days incubation at 37° C., cells were analyzed for Renilla Luciferase activity using the EnduRen substrate (Promega cat #E6485) according to the manufacturer's directions. Briefly, the EnduRen substrate was diluted in DMEM and then added to the plates to a final concentration of 7.5 μM. The plates were incubated for at least 1 h at 37° C. then read on a Viewlux Imager (PerkinElmer) using a luminescence program.
As for `CCC(C)c1nc2oc(-c3ccc(F)cc3)c(C(=O)NC)c2cc1-c1cccc(C(=O)NC(C)(C)c2ncon2)c1` (stereo not shown) [Example 15, 5-(3-((2-(1,2,4-oxadiazol-3-yl)propan-2-yl)carbamoyl)phenyl)-6-(sec-butyl)-2-(4-fluorophenyl)-N-methylfuro[2,3-b]pyridine-3-carboxamide], the response was half-maximal at 4.98 nM (EC50).
On the same count and under the same terms, next, `CCC(C)c1nc2oc(-c3ccc(F)cc3)c(C(=O)NC)c2cc1-c1cccc(C(=O)NC(C)(C)c2ncon2)c1` (stereo not shown) [Example 16, 5-(3-((2-(1,2,4-oxadiazol-3-yl)propan-2-yl)carbamoyl)phenyl)-6-(sec-butyl)-2-(4-fluorophenyl)-N-methylfuro[2,3-b]pyridine-3-carboxamide]: 20 nM.

The same assay, now with this note: Hepatitis C virus, Huh-7, 72 h, 1b replicon, Huh-7 cells, Renilla luciferase, 3 days incubation.
In the case of `CNC(=O)c1c(-c2ccc(F)cc2)oc2nc(CCC(F)(F)F)c(-c3cccc(C(=O)NC(C)(C)c4ncon4)c3)cc12` [Example 1, 5-(3-((2-(1,2,4-oxadiazol-3-yl)propan-2-yl)carbamoyl)phenyl)-2-(4-fluorophenyl)-N-methyl-6-(3,3,3-trifluoropropyl)furo[2,3-b]pyridine-3-carboxamide], the midpoint of the response, the EC50, lay at 3.02 nM.
The same measure, in the same setting: then `CNC(=O)c1c(-c2ccc(F)cc2)oc2nc(NCC(F)(F)F)c(-c3cccc(C(=O)NC4(c5ncon5)CCC4)c3)cc12` [Example 5, 5-(3-((1-(1,2,4-oxadiazol-3-yl)cyclobutyl)carbamoyl)phenyl)-2-(4-fluorophenyl)-N-methyl-6-((2,2,2-trifluoroethyl)amino)furo[2,3-b]pyridine-3-carboxamide], with 4.96 nM.
On the same count and under the same terms, then `CNC(=O)c1c(-c2ccc(F)cc2)oc2nc(NCC(F)(F)F)c(-c3cccc(C(=O)NC4(c5noc(C)n5)CC4)c3)cc12` [Example 6, 2-(4-fluorophenyl)-N-methyl-5-(3-((1-(5-methyl-1,2,4-oxadiazol-3-yl)cyclopropyl)carbamoyl)phenyl)-6-((2,2,2-trifluoroethyl)amino)furo[2,3-b]pyridine-3-carboxamide], with 4.76 nM; and `CNC(=O)c1c(-c2ccc(F)cc2)oc2nc(NCC(F)(F)F)c(-c3cccc(C(=O)NC(C)(C)c4nc(C)no4)c3)cc12` [Example 7, 2-(4-fluorophenyl)-N-methyl-5-(3-((2-(3-methyl-1,2,4-oxadiazol-5-yl)propan-2-yl)carbamoyl)phenyl)-6-((2,2,2-trifluoroethyl)amino)furo[2,3-b]pyridine-3-carboxamide], with 3.46 nM; and `CNC(=O)c1c(-c2ccc(F)cc2)oc2nc(NCC(F)(F)F)c(-c3cccc(C(=O)NC4(c5nc(C)no5)CC4)c3)cc12` [Example 8, 2-(4-fluorophenyl)-N-methyl-5-(3-((1-(3-methyl-1,2,4-oxadiazol-5-yl)cyclopropyl)carbamoyl)phenyl)-6-((2,2,2-trifluoroethyl)amino)furo[2,3-b]pyridine-3-carboxamide], with 5.6 nM.
For the compound `CNC(=O)c1c(-c2ccc(F)cc2)oc2nc(CCC(F)(F)F)c(-c3cccc(C(=O)NC(C)(C)c4noc(C)n4)c3)cc12` [Example 10, 2-(4-fluorophenyl)-N-methyl-5-(3-((2-(5-methyl-1,2,4-oxadiazol-3-yl)propan-2-yl)carbamoyl)phenyl)-6-(3,3,3-trifluoropropyl)furo[2,3-b]pyridine-3-carboxamide], a half-maximal response (EC50) required 3.61 nM.
On the same count and under the same terms, next, `CNC(=O)c1c(-c2ccc(F)cc2)oc2nc(NCC(F)(F)F)c(-c3cccc(C(=O)NC(C)(C)c4noc(C)n4)c3)cc12` [Example 11, 2-(4-fluorophenyl)-N-methyl-5-(3-((2-(5-methyl-1,2,4-oxadiazol-3-yl)propan-2-yl)carbamoyl)phenyl)-6-((2,2,2-trifluoroethyl)amino)furo[2,3-b]pyridine-3-carboxamide]: 4.96 nM; `CNC(=O)c1c(-c2ccc(F)cc2)oc2nc(NCC(F)(F)F)c(-c3cccc(C(=O)NC(C)(C)c4ncon4)c3)cc12` [Example 12, 5-(3-((2-(1,2,4-oxadiazol-3-yl)propan-2-yl)carbamoyl)phenyl)-2-(4-fluorophenyl)-N-methyl-6-((2,2,2-trifluoroethyl)amino)furo[2,3-b]pyridine-3-carboxamide]: 2.95 nM; `CNC(=O)c1c(-c2ccc(F)cc2)oc2nc(NCC(F)(F)F)c(-c3ccc(OC)c(C(=O)NC(C)(C)c4ncon4)c3)cc12` [Example 14, 5-(3-((2-(1,2,4-oxadiazol-3-yl)propan-2-yl)carbamoyl)-4-methoxyphenyl)-2-(4-fluorophenyl)-N-methyl-6-((2,2,2-trifluoroethyl)amino)furo[2,3-b]pyridine-3-carboxamide]: 6.67 nM.
Take `[2H]C([2H])([2H])Oc1ncc(-c2cc3c(C(=O)NC)c(-c4ccc(F)cc4)oc3nc2NCC(F)(F)F)cc1C(=O)NC(c1ncon1)(C([2H])([2H])[2H])C([2H])([2H])[2H]` [Example 18, 5-[2-(4-fluorophenyl)-3-(methylcarbamoyl)-6-[(2,2,2-trifluoroethyl)amino]furo[2,3-b]pyridin-5-yl]-2-(^2H3)methoxy-N-[2-(1,2,4-oxadiazol-3-yl)(^2H6)propan-2-yl]pyridine-3-carboxamide]: a half-maximal effect (EC50) was put at 4.32 nM.
Consider `[2H]c1nc(C(NC(=O)c2cc(-c3cc4c(C(=O)NC)c(-c5ccc(F)cc5)oc4nc3NCC(F)(F)F)cnc2OC([2H])([2H])[2H])(C([2H])([2H])[2H])C([2H])([2H])[2H])no1` [Example 19, 5-[2-(4-fluorophenyl)-3-(methylcarbamoyl)-6-[(2,2,2-trifluoroethyl)amino]furo[2,3-b]pyridin-5-yl]-2-(^2H3)methoxy-N-{2-[(^2H)-1,2,4-oxadiazol-3-yl](^2H6)propan-2-yl}pyridine-3-carboxamide], for which the EC50 (usually the concentration at which the effect is half-maximal) worked out at 5.77 nM.
The same measure, in the same setting: next, `[2H]C([2H])([2H])Oc1ncc(-c2cc3c(C(=O)NC)c(-c4ccc(F)cc4)oc3nc2OCC(F)(F)F)cc1C(=O)NC(c1ncon1)(C([2H])([2H])[2H])C([2H])([2H])[2H]` [Example 21, 5-[2-(4-fluorophenyl)-3-(methylcarbamoyl)-6-(2,2,2-trifluoroethoxy)furo[2,3-b]pyridin-5-yl]-2-(^2H3)methoxy-N-[2-(1,2,4-oxadiazol-3-yl)(^2H6)propan-2-yl]pyridine-3-carboxamide]: 2.23 nM; `[2H]C([2H])([2H])Oc1ncc(-c2cc3c(C(=O)NC)c(-c4ccc(F)cc4)oc3nc2OCC(F)(F)F)cc1C(=O)NC(C)(C)c1ncon1` [Example 22, 5-[2-(4-fluorophenyl)-3-(methylcarbamoyl)-6-(2,2,2-trifluoroethoxy)furo[2,3-b]pyridin-5-yl]-2-(^2H3)methoxy-N-[2-(1,2,4-oxadiazol-3-yl)propan-2-yl]pyridine-3-carboxamide]: 1.7 nM; `[2H]C([2H])([2H])C(NC(=O)c1cc(-c2cc3c(C(=O)NC)c(-c4ccc(F)cc4)oc3nc2NCC(F)(F)F)cnc1OC)(c1ncon1)C([2H])([2H])[2H]` [Example 26, 5-[2-(4-fluorophenyl)-3-(methylcarbamoyl)-6-[(2,2,2-trifluoroethyl)amino]furo[2,3-b]pyridin-5-yl]-2-methoxy-N-[2-(1,2,4-oxadiazol-3-yl)(^2H6)propan-2-yl]pyridine-3-carboxamide]: 6.26 nM.
On the same count and under the same terms, then `[2H]C([2H])([2H])Oc1ncc(-c2cc3c(C(=O)NC)c(-c4ccc(F)cc4)oc3nc2NCC(F)(F)F)cc1C(=O)NC(C)(C)c1ncon1` [Example 27, 5-[2-(4-fluorophenyl)-3-(methylcarbamoyl)-6-[(2,2,2-trifluoroethyl)amino]furo[2,3-b]pyridin-5-yl]-2-(^2H3)methoxy-N-[2-(1,2,4-oxadiazol-3-yl)propan-2-yl]pyridine-3-carboxamide], with 4.32 nM; and `CNC(=O)c1c(-c2ccc(F)cc2)oc2nc(NCC(F)(F)F)c(-c3cnc(OC)c(C(=O)NC(C)(C)c4ncon4)c3)cc12` [Example 29, 5-[2-(4-fluorophenyl)-3-(methylcarbamoyl)-6-[(2,2,2-trifluoroethyl)amino]furo[2,3-b]pyridin-5-yl]-2-methoxy-N-[2-(1,2,4-oxadiazol-3-yl)propan-2-yl]pyridine-3-carboxamide], with 8.01 nM.
`[2H]C([2H])([2H])Oc1ncc(-c2cc3c(C(=O)NC)c(-c4ccc(F)cc4)oc3nc2CCC(F)(F)F)cc1C(=O)NC(C)(c1ncon1)C1CC1` (stereo not shown) [Example 30, N-[1-cyclopropyl-1-(1,2,4-oxadiazol-3-yl)ethyl]-5-[2-(4-fluorophenyl)-3-(methylcarbamoyl)-6-(3,3,3-trifluoropropyl)furo[2,3-b]pyridin-5-yl]-2-(^2H3)methoxypyridine-3-carboxamide] gave an EC50 of 4.35 nM.
